Consider 2 compounds from US20240124491A1, “METHODS AND COMPOUNDS FOR TREATING FRIEDREICH'S ATAXIA” (Design Therapeutics, Inc., priority 2021, published 2024).

This assay deals with human FXN. Nature of the assay: EC50 assay: FXN mRNA expression by qRT-PCR in GM15850 cells after 48 hrs compound treatment. Format: cell-based. The following applies: Homo sapiens, 48 hrs incubation, hFXN expression normalized to hGAPDH (qRT-PCR), read-out: EC50 WT (nM, 48 hr). Summed up:
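FXN transcript, normalized to GAPDH by TaqMan qRT-PCR, read out after 48 hrs of compound on GM15850 cells plated at 150,000 per well. Dosing used five 3-fold steps from 150 nM final, vehicle 0.01% DMSO.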

With `COCCOCCOCCOCCN(CCCCCn1cc(NC(=O)c2nc(NC(=O)CCNC(=O)c3cc(NC(=O)c4nccn4C)cn3C)cn2C)cc1C(=O)NCCC(=O)Nc1cn(C)c(C(=O)NCCC(=O)NCCOCCOCCOCCOCCOCCOCCOCCOCCOc2ccc(NC(=O)c3cc4c(-c5cc(C(C)(C)O)ccc5Oc5c(C)cc(F)cc5C)cn(C)c(=O)c4[nH]3)cc2)n1)CCOCCOCCOCCOC` [Compound 241], the EC50 is over 500 nM.
On to `COCCOCCOCCOCCOCCOCCOCCOCCN(CCCCCn1cc(NC(=O)c2nc(NC(=O)CCNC(=O)c3cc(NC(=O)c4nccn4C)cn3C)cn2C)cc1C(=O)NCCC(=O)Nc1cn(C)c(C(=O)NCCC(=O)NCCOCCOCCOCCOCCOCCOCCOCCOCCOc2ccc(NC(=O)c3cc4c(-c5cc(C(C)(C)O)ccc5Oc5c(C)cc(F)cc5C)cn(C)c(=O)c4[nH]3)cc2)n1)CCOCCOCCOCCOCCOCCOCCOCCOC` [Compound 242], for which the half-maximal effective concentration (EC50) is under 100 nM.

The term EC50 denotes the concentration at which the effect is half-maximal.
